Test results: patent US11173142B2, “Cancer treatment composition” (BOTANICAL RESOURCE HOLDINGS (PROPRIETARY) LIMITED, priority 2015, dated 2021)

Tests used:
[1] = test system: normal breast epithelial cells (MCF-12A); test: XTT viability assay, normal breast epithelial cells, 24-hour treatment with isolates; format: cell-based; settings: 24 hour incubation, highest dose assessed, FIG. 4
Description: (§1) To calculate doses, the concentrations of the specific components for serving sizes of 15 mg, 30 mg and 60 mg per person per day for Δ7 mesembrenone, mesembrenone and non-alkaloids respectively were expressed as a fraction of total body fluid volume. In an attempt to account for digestive losses, these concentrations were halved, to reach cell-culture “equivalent” doses of 0.5 ug/ml, 1 ug/ml and 2 ug/ml respectively. Following standard laboratory practice, a range of doses around these was assessed. For clarity, only 3 concentrations per component are presented (doses of 10-fold smaller were also tested for ail components, but were not different from lowest doses presented herein and thus omitted).
(§2) Briefly, the procedure itself entailed 24-hour treatment of confluent cell culture samples of normal breast epithelial cells (MCF-12A) and breast epithelial carcinoma cells (MCF-7) with varying doses of the test products. At the end of this period, the mitochondrial viability of cells was assessed using the XTT assay method. Viability was measured and expressed relative to an appropriate control.
Results are illustrated in FIG. 4 of the accompanying drawings. Results are expressed as the percentage of viable cells after a 24 hour incubation with the test substances. […]

[2] = test system: breast epithelial carcinoma cells (MCF-7); test: XTT viability assay, breast epithelial carcinoma cells, 24-hour treatment with isolates; format: cell-based; settings: 24 hour incubation, FIG. 4; for effect on viability of cancer cells: 3 concentrations per component around 0.5, 1 and 2 ug/ml respectively
Description: as §1, §2
Results are illustrated in FIG. 4 of the accompanying drawings. Results are expressed as the percentage of viable cells after a 24 hour incubation with the test substances. Bars are means of repeated experiments (a minimum of 3 repeat experiments in triplicate) and error bars indicate standard deviations from the mean. Asterisk (*) indicate significant reductions in cancer cell viability.

Compound | effect on normal cell survival [1] | effect on viability of cancer cells [2] | anti-cancer effect compared with the other isolates ([2]; Δ7 mesembrenone dosed 50% less than mesembrenone)
COc1ccc([C@@]23C=CC(=O)C[C@@H]2N(C)CC3)cc1OC [mesembrenone] | seemed to limit growth of normal cells to some extent | clear dose-response effects | –
COc1ccc(C23CCC(=O)C=C2N(C)CC3)cc1OC (centres unmarked) [Δ7 mesembrenone] | not affecting normal cell survival | clear dose-response effects | most potent anti-cancer effect
